Measured values published in publication PMC12057046, “Elucidation of short linear motif-based interactions of the MIT and rhodanese domains of the ubiquitin-specific protease 8” (Biology Direct, 2025).
Each block holds one substance with its values, some of them ahead of it.

Key:
USP8 MIT domain [1] = experiment: SPOT array alanine scanning, USP8 MIT domain; type: binding, human; conditions: cellulose-bound peptides, GST-tagged MIT 100 µM, 5% skim milk TBST, overnight 4 °C, anti-GST HRP chemiluminescence; normalized to wild type
Procedure: (§1) SPOT array alanine scanning of peptides was designed, and cellulose-bound peptides were synthesized using Fluorenylmethyloxycarbonyl (Fmoc) solid phase synthesis with a MultiPep synthesizer (INTAVIS Peptide Services, Tübingen, Germany). The membranes of predicted peptides were purchased by JPT Peptide Technologies (Berlin, Germany). The membranes were incubated with blocking buffer containing 5% skim milk in TBST (50 mM Tris, 150 mM NaCl pH 7.5, 0.05% Tween-20) for two hours at room temperature. The blocked membranes were incubated with GST-tagged proteins (100 µM for MIT domain and 150 µM for the Rhodanese domain) in blocking buffer overnight at 4 °C. After rinsed with TBST the membranes were incubated with HRP-conjugated anti-GST antibody (Cytiva, RPN1236; 1:3000 dilution) in blocking buffer for 1 h at 4 °C and subsequently rinsed with TBST to remove any excess antibody. The ECL reagent (Clarity Max Western ECL substrate, 1705062, BioRad) was used for chemiluminescence read-out with the ChemiDoc Imaging system (BioRad). The images were analysed with Fiji (ImageJ2 version 2.9.0). SLiMSearch4 was used to design the peptide arrays with known interactors predicted to contain the motifs. The background signal intensity was subtracted, and the corrected signal intensities were normalized to the positive control and presented as percentage.

USP8 MIT domain [2] = experiment: Proteomic peptide-phage display (ProP-PD) selection against USP8 MIT domain; type: binding, human; design: Confidence: scale not given here; conditions: for NGS counts (%): ProP-PD, human disorderome library, GST-tagged MIT bait, four rounds of selection, percent of NGS counts associated with each peptide, Fig. 1B; for max_counts: Total NGS counts; for Confidence: calculated based on four metrics: overlapping peptides, replicated peptides, motif match, peptide counts; for Counts: fraction of NGS counts for a selection; for Promiscuity: number of baits selections where the peptide has been observed, calculated on the domain level; for Replicates: number of screens against the bait protein in which the peptide has been found; for Specificity: proportion for the current bait of the total NGS read counts of the peptide for all baits screened with this library
How it was run: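 GST-tagged USP8 MIT domain, immobilized on plates, used as bait for four rounds of phage selection with a human disorderome peptide library, after pre-clearing on GST at 4 °C. Binding 2 h at 4 °C, at least three replicates. Enriched peptides identified by next-generation sequencing.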

USP8 Rhod domain [3] = biological target: T1, USP8 Rhod domain (Homo sapiens, UniProt P40818); experiment: ProP-PD selection against USP8 Rhod domain; type: binding; conditions: for NGS counts (%): ProP-PD, human disorderome library, GST-tagged Rhod bait, four rounds of selection, Fig. 3A; for max_counts: Total NGS counts; for Counts: fraction of NGS counts for a selection; for Promiscuity: number of baits selections where the peptide has been observed, calculated on the domain level; for Replicates: number of screens against the bait protein in which the peptide has been found; for Specificity: proportion for the current bait of the total NGS read counts of the peptide for all baits screened with this library
T1 construct: USP8 Rhod (174–317) (UniProt: P40818); GST (cleaved yes); made in house; host or cells: Escherichia coli BL21-Gold (DE3)
T1 sequence (P40818 174-317): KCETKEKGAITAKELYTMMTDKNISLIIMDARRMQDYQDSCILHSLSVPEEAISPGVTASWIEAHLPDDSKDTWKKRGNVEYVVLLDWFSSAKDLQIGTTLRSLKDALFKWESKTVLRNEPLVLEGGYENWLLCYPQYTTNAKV
Procedure: We next evaluated the peptide binding of the Rhod domain by ProP-PD selections. […] (February 2025).
Four rounds of phage selections were carried out using the second generation human disorderome library or the constructed deep mutational scanning library. At least three individual replicates were used for each bait protein. 10 µg of GST-tagged proteins or GST control (diluted in PBS from the stock of proteins kept in the purification elution buffer) were immobilized in 100 µL PBS on a 96-well MaxiSorp (Nunc) plate overnight at 4 °C. The plates were incubated with blocking buffer (with 0.5% BSA in PBS) for 1 h at 4 °C followed by washing with 0.05% Tween 20 in PBS four times. The naïve phage library (10^11 CFU) was diluted in 1/5th volume PEG/NaCl (20% PEG-8000, 0.4 M NaCl) and 1X PBS, incubated on ice for 10 min and centrifuged at 10,000 [drawing 3] g for 10 min. The pellet was resuspended in the volume of PBS (100 µL/ well). The GST-coated control plate was incubated with 100 µL library per well in PBS for 1 h at 4 °C to remove non-specific binders. The supernatant was transferred to the target wells and incubated for 2 h at 4 °C. The wells were washed five times with 0.05% Tween 20 in PBS and the bound phages were eluted with 100 µL per well log-phase E. coli OmniMAX by incubating at 37° C while shaking. After 30 min, M13KO7 helper phages were added and incubated for an additional 45 min. The bacterial cultures were transferred to 1 mL 2YT supplemented with 100 µg/mL carbenicillin, 30 µg/mL kanamycin and 0.3 mM IPTG and grew overnight at 37 °C while shaking. The following day the cultures were centrifuged for 10 min at 2,000 [drawing 4] g, 4 °C. 1/10th volume of 10 [drawing 5] PBS was added to adjust the pH and heated at 65 °C for 10 min. The phage pools from each round were used as in-phages for the next round of selections.
The samples were prepared for NGS as previously described. […] The PCR products were normalized with 25 µL Mag-bind Total Pure NGS beads (Omega Biotek) and 10 µL of each eluted sample (Qiagen Elution Buffer) was pooled and cleaned-up with a PCR purification kit (Qiagen). The PCR product was confirmed by 2% agarose electrophoresis and the band was extracted with QIAquick Gel extraction Kit (Qiagen) and eluted with 30 µL TE buffer. The dsDNA was quantified using QuantiT PicoGreen dsDNA Assay Kit (Thermo Fisher) and sent for NGS (Illumina MiSeq v3, 1 × 150 bp read setup, 20% PhiX, NGI SciLifeLab facility, Sweden). The NGS data were demultiplexed, adapter regions were trimmed and sequences with an average quality of at least 20 were translated to peptide sequences. The NGS data were analysed using custom Python scripts. The total read NGS counts for each selection experiment of each peptide sequence were compiled and annotated in PepTools (https://slim.icr.ac.uk/tools/peptools/). Since ProP-PD is in essence a competition assay, the possibility of the input phage library influencing the selection outcome was explored. […] Pearson correlation coefficient and p-value were calculated using Python’s SciPy library.

USP8 Rhod domain [4] = biological target: T1, USP8 Rhod domain; experiment: SPOT array of predicted peptides from known interactors, USP8 Rhod domain; type: binding; conditions: for Percentage (%) normalized to highest intensity and corrected for background: Rhod-Peptide screening, SPOT array of predicted peptides, KIAA1614 positive control = 100; for SPOT intensity in words: GST-tagged Rhod 150 µM, positive control KIAA1614_568 − 583, array of 42 predicted peptides
Excerpt: The results therefore support that the USP8 Rhod domain binds to two distinct types of motifs (Fig. 4A, B). We used the motifs to scan for matching motifs in previously reported interactors using the SLiMSearch algorithm (Supplementary Table S8 A). As there was no clear match for the TET3-type motif except from only one hit, we focused on the KIAA1614-type motif. […] Both TP63 and USP21 are previously reported USP8 substrates, and the interactions may potentially contribute to substrate targeting. […] As the SHANK3 peptides (351-[…]−365 and 392-[…]−406) are closely located in the primary structure of SHANK3, it is tempting to speculate that both motifs contribute to the interactions between the full-length proteins by increasing the local concentration of binding motifs. […] Taken together, we find that the USP8 Rhod domain is a peptide binding domain that can be bound by peptides of two distinct types of motifs, with the Rx[LI]xGxxxPxxL motif and variants thereof being found in known USP8 substrates.
as §1

Substance: EVEHRDLEDRYNQLLK [Girdin1192 − 1207, CCDC88A-encoded protein Girdin peptide]
- residues important for binding by SPOT array alanine scanning (USP8 MIT domain [1]): binding to the Girdin1192 − 1207 peptide was lost when the residues LExRYxxLL were mutated to alanine
- NGS counts (%) (USP8 MIT domain [2]): 1.10%
- max_counts (USP8 MIT domain [2]): 80
- Confidence (USP8 MIT domain [2]): 2
- Counts (USP8 MIT domain [2]): 0.002924
- Promiscuity (USP8 MIT domain [2]): 1
- Replicates (USP8 MIT domain [2]): 3
- Specificity (USP8 MIT domain [2]): 1

Substance: HIWHYDEEYLPDASKP [TTBK2, Tau-tubulin kinase 2 peptide 503-518]
- NGS counts (%) (USP8 Rhod domain [3]): 0.06%
- max_counts (USP8 Rhod domain [3]): 76
- Counts (USP8 Rhod domain [3]): 0.0007473
- Promiscuity (USP8 Rhod domain [3]): 7
- Replicates (USP8 Rhod domain [3]): 2
- Specificity (USP8 Rhod domain [3]): 0.5152

Substance: LMNFLGDSNPFNLLRM [BCL11B, B-cell lymphoma/leukemia 11B peptide 279-294]
- NGS counts (%) (USP8 Rhod domain [3]): 0.58%
- max_counts (USP8 Rhod domain [3]): 421
- Counts (USP8 Rhod domain [3]): 0.006181
- Promiscuity (USP8 Rhod domain [3]): 6
- Replicates (USP8 Rhod domain [3]): 3
- Specificity (USP8 Rhod domain [3]): 0.9228

Substance: PEKPHDSLDSRIEMLL [SETD1B492 − 507, Histone-lysine N-methyltransferase SETD1B peptide]
- residues important for binding by SPOT array alanine scanning (USP8 MIT domain [1]): confirmed the contributions of the motif residues in binding and the aspartic acid in position p2 of the motif
- NGS counts (%) (USP8 MIT domain [2]): 1.37%
- max_counts (USP8 MIT domain [2]): 70
- Confidence (USP8 MIT domain [2]): 3
- Counts (USP8 MIT domain [2]): 0.001866
- Promiscuity (USP8 MIT domain [2]): 1
- Replicates (USP8 MIT domain [2]): 3
- Specificity (USP8 MIT domain [2]): 1

Substance: QPNHGLALWEAKMKQL [TET3 1701-1716, Methylcytosine dioxygenase TET3 peptide, overlapping]
- max_counts (USP8 Rhod domain [3]): 7
- Counts (USP8 Rhod domain [3]): 0.00009459587683709846
- Promiscuity (USP8 Rhod domain [3]): 2
- Replicates (USP8 Rhod domain [3]): 3
- Specificity (USP8 Rhod domain [3]): 0.8889

Substance: SCISEWEQKIPTYN
- Percentage (%) normalized to highest intensity and corrected for background (USP8 Rhod domain [4]): 6%

Substance: SLASVRGLQGRSMSV
- Percentage (%) normalized to highest intensity and corrected for background (USP8 Rhod domain [4]): 5%

Substance: SLRSLPHQLLLQRLQ
- Percentage (%) normalized to highest intensity and corrected for background (USP8 Rhod domain [4]): 7%

Substance: SLRSLPHQLLLQRLQ [SHANK3 peptide]
- SPOT intensity in words (USP8 Rhod domain [4]): Weaker signals

Substance: SPARSSPELLPSGV
- Percentage (%) normalized to highest intensity and corrected for background (USP8 Rhod domain [4]): 1.56%

Substance: SRSLSPTRLLSLPPD
- Percentage (%) normalized to highest intensity and corrected for background (USP8 Rhod domain [4]): 6.64%

Substance: SWAAGPGSLLAWLIL
- Percentage (%) normalized to highest intensity and corrected for background (USP8 Rhod domain [4]): 1.45%

Substance: TASSLPRKLLPWEEG
- Percentage (%) normalized to highest intensity and corrected for background (USP8 Rhod domain [4]): -1.1%

Other lines, results leading:

- Percentage (%) normalized to highest intensity and corrected for background (USP8 Rhod domain [4]): 4.31%
Substance: PVYSRPTVLMRAPPA

- Percentage (%) normalized to highest intensity and corrected for background (USP8 Rhod domain [4]): 17%
Substance: QPVYSSPRRLNCAE

- SPOT intensity in words (USP8 Rhod domain [4]): Weaker signals
Substance: RAB3IP82 − 95: SSPxxL containing peptide from the RAB3A interacting protein (QPVYSSPRRLNCAE)

- Percentage (%) normalized to highest intensity and corrected for background (USP8 Rhod domain [4]): 2%
Substance: RALLERCLKGEGEIE

- Percentage (%) normalized to highest intensity and corrected for background (USP8 Rhod domain [4]): 39%
Substance: SLRRLGGFPGPPTLFS

- Percentage (%) normalized to highest intensity and corrected for background (USP8 Rhod domain [4]): 1%
Substance: SPEKSSPQALVPNG

- Percentage (%) normalized to highest intensity and corrected for background (USP8 Rhod domain [4]): -0.544%
Substance: SPLGRPESLLQSNTL

- Percentage (%) normalized to highest intensity and corrected for background (USP8 Rhod domain [4]): 9%
Substance: SQLPSSPAQLSCRS

- Percentage (%) normalized to highest intensity and corrected for background (USP8 Rhod domain [4]): 5.49%
Substance: SSNSHRSLDGLSRTQ

- Percentage (%) normalized to highest intensity and corrected for background (USP8 Rhod domain [4]): -1.73%
Substance: SSTSTRHLQGVEFEM

- Percentage (%) normalized to highest intensity and corrected for background (USP8 Rhod domain [4]): 7%
Substance: SYAKRRRLAGPSGLA

- SPOT intensity in words (USP8 Rhod domain [4]): Weaker signals
Substance: SYAKRRRLAGPSGLA [SHANK3 peptide]

- Percentage (%) normalized to highest intensity and corrected for background (USP8 Rhod domain [4]): -1.11%
Substance: TGLTVPPALLRANSD

- Percentage (%) normalized to highest intensity and corrected for background (USP8 Rhod domain [4]): 6%
Substance: TRKFSSPPPLSITK

- NGS counts (%) (USP8 Rhod domain [3]): 0.02%
- max_counts (USP8 Rhod domain [3]): 23
- Counts (USP8 Rhod domain [3]): 0.0001477
- Promiscuity (USP8 Rhod domain [3]): 4
- Replicates (USP8 Rhod domain [3]): 2
- Specificity (USP8 Rhod domain [3]): 0.5417
Substance: YDTLIIRDYTQSSSSL [GRM5, Metabotropic glutamate receptor 5 peptide 1197-1212]
